Measured values taken from paper PMC9304199, “A small molecule CFTR potentiator restores ATP‐dependent channel gating to the cystic fibrosis mutant G551D‐CFTR” (British Journal of Pharmacology, 2022).

Key:
[1] = molecular target: T1, F508del‐CFTR (Homo sapiens, UniProt P13569, DEL508-508); experiment: Single-channel recording in excised inside-out membrane patches, F508del‐CFTR; type: biochemical; parameters: expressed in transfected cells; BHK cells from MD Amaral; conditions: for reduction of interburst interval (IBI): single active channel; for Emax: read-out: Maximal effect (%) (95% CI)
Method: For CFTR studies using automated electrophysiology and single-channel recording, we used baby hamster kidney (BHK) cells (RRID:CVCL_1915) and human embryonic kidney (HEK) 293 cells (RRID:CVCL_0045) stably expressing wild-type human CFTR and the CFTR variants F508del- and […] et al., [2002]; Xu et al., [2014]). […] HEK cells expressing CFTR variants were generated using the Flp-InTM system as described above for F508del- and G551D-CFTR-expressing FRT cells. They were cultured in Dulbecco's modified Eagle's medium (glucose, 1.5 g·L^-1; sodium pyruvate, 110 mg·L^-1) supplemented with 10% FBS (PAA Laboratories), GlutaMAXTM and hygromycin-B (150 μg·ml^-1; InvitrogenTM, Thermo Fisher Scientific) at 37°C in a humidified atmosphere with 5% CO2. Prior to study, F508del-CFTR expressed in HEK cells was trafficked to the plasma membrane by low temperature incubation (27°C for 24-72 h). […] CFTR Cl^- channels were recorded in excised inside-out membrane patches using an Axopatch 200B patch-clamp amplifier and pCLAMP software (version 10.3) (RRID:SCR_011323) (both from Molecular Devices, San Jose, CA, USA) (Sheppard & Robinson, [1997]). […] Within 2 min after membrane patch excision, we added the catalytic subunit of protein kinase A (PKA; 75 nM) and ATP (1 mM) to the intracellular solution to activate CFTR Cl^- channels. To minimise channel rundown, we added PKA and millimolar concentrations of ATP to all intracellular solutions and clamped voltage at -50 mV. […] We reduced the ATP concentration when testing CFTR potentiators on wild-type CFTR to observe their effects more clearly. […] Instead, specific interventions with CFTR potentiators were compared with the pre-intervention control period made with the same concentration of ATP and PKA, but without test compounds. […] To determine channel number, we used the maximum number of simultaneous channel openings observed during an experiment (Cai et al., [2006]). To minimise errors, we used experimental conditions that robustly potentiate channel activity and verified that recordings were of sufficient length to ascertain the correct number of channels ([…] et al., [1994]). […] Therefore, Po values for G551D-CFTR are expressed as apparent Po (Po(app)) values. Single-channel currents were directly acquired to a computer hard disc after filtering at a corner frequency (f c) of 500 Hz with an eight-pole Bessel filter (model LHBF-48×; npi electronic GmbH, Tamm, Germany) and digitising at a sampling rate of 5 kHz using a Digidata 1440A interface (Molecular Devices) and pCLAMP software. To measure single-channel current amplitude (i), Gaussian distributions were fit to current amplitude histograms. For Po and burst analyses, lists of open- and closed-times were created using a half-amplitude crossing criterion for event detection and dwell-time histograms constructed as previously described (Sheppard & Robinson, [1997]); transitions < 1 ms were excluded from the analysis (eight-pole Bessel filter rise time [T 10-90] ~ 0.73 ms at f c = 500 Hz). Histograms were fitted with one or more component exponential functions using the maximum likelihood method. […] The mean interburst interval (TIBI) was calculated using the equation (Cai et al., [2006]): (1) Po=Tb/TMBD+TIBI, where T b = (mean burst duration) × (open probability within a burst). Mean burst duration (T MBD) and open probability within a burst (Po[burst]) were determined directly from experimental data using pCLAMP software.

[2] = molecular target: T1, F508del‐CFTR; experiment: Fluorescence-based halide flux assay (I−-induced quenching of YFP fluorescence) in FRT cells; type: cell-based; conditions: exploratory data
Method: Fischer rat thyroid (FRT) epithelial cells (RRID:CVCL_A6IE) expressing CFTR variants were used for functional studies with halide flux and Ussing chamber techniques. FRT cells stably expressing the F508del variant with the V470 polymorphism and the halide sensor yellow fluorescent protein (YFP)‐H148Q/I152L (F508del‐CFTR‐YFP‐FRT cells) (Galietta et al., [2001]) were obtained from LJV Galietta (Telethon Institute for Genetics and Medicine, Pozzuoli, Italy). They were cultured in Coon's modified Ham's F‐12 medium supplemented with 10% FBS, 2‐mM GlutaMAX™, 0.27% NaHCO3, 100 U·ml^−1 penicillin and 100 μg·ml^−1 streptomycin and 0.8 mg·ml^−1 zeocin at 37°C in a humidified atmosphere with 5% CO2. […]
CFTR‐mediated anion transport was quantified by measuring I^−‐induced quenching of YFP fluorescence using a microtitre plate reader following the method of Galietta et al. ([2001]). […] Using a fluorescence microtitre plate reader (FLIPR384; Molecular Devices, San Jose, CA, USA) equipped with 500‐nm excitation and 535‐nm emission filters, an initial fluorescence reading was recorded before addition of PBS‐iodide solution (composition [mM]: 137 NaI, 2.7 KCl, 8.1 Na2HPO4, 1.5 KH2PO4, 1 CaCl2, and 0.5 MgCl2, pH 7.40) into each well and 21 s later a second fluorescence reading was acquired. […]

[3] = F508del‐CFTR Cl− channels, excised inside-out patches, 23°C, data normalised to ivacaftor 1 μM, read-out: EC50 (μM) (95% CI)
[4] = low temperature-rescued F508del‐CFTR, ATP 1 mM, PKA 75 nM, ~23°C
[5] = low temperature-rescued F508del‐CFTR, ATP 1 mM, PKA 75 nM, ~23°C, read-out: EC50 for potentiation of Po
[6] = low temperature-rescued F508del‐CFTR, compound 10 μM, ATP 1 mM
[7] = low temperature-rescued F508del‐CFTR, compound 1 μM, ATP 1 mM

T1 sequence (P13569 with tags, fused parts or gaps DEL508-508): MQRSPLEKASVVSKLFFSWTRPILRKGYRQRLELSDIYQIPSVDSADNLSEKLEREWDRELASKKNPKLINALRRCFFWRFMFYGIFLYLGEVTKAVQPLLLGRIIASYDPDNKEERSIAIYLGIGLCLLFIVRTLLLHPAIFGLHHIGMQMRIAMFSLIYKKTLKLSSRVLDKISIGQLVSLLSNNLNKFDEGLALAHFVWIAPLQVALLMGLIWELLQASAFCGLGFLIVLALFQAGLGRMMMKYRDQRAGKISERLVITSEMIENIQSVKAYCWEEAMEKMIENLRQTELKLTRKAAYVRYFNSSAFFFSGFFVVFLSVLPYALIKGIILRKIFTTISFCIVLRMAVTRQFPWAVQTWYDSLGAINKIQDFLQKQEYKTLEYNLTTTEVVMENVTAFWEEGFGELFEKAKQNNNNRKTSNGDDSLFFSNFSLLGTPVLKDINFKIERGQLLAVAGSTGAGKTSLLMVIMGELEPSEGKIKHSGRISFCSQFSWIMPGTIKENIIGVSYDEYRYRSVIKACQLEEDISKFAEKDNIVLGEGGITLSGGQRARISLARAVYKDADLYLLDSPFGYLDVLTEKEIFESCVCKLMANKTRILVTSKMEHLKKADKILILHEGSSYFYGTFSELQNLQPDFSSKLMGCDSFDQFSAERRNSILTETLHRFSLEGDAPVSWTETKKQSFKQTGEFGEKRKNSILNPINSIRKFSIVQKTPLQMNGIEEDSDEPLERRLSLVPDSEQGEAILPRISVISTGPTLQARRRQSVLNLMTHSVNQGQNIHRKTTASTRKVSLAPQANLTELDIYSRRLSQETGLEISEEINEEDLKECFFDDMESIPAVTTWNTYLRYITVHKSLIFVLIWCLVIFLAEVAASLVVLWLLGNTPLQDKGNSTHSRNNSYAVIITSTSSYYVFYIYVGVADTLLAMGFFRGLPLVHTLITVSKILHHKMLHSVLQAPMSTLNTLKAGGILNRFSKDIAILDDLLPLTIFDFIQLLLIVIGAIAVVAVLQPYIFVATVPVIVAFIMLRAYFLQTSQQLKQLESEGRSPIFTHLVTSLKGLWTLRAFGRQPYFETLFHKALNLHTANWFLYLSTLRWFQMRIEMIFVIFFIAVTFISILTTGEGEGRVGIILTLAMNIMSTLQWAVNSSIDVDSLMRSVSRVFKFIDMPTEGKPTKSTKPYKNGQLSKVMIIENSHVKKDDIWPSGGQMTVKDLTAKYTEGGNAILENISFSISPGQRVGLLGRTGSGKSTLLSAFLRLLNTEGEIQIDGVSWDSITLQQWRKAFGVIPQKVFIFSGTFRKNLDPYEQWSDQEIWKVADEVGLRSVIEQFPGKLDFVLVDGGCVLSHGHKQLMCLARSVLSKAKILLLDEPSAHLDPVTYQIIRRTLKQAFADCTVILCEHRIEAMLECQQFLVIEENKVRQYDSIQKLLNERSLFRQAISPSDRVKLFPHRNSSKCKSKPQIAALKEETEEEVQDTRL

Row | Structure (SMILES) | EC50 [1, 3] | Po max [1, 4] | EC50 [1, 5] | Po max of ATP-dependence in presence of compound ([1]; low temperature-rescued F508del‐CFTR, compound 300 nM, ATP 0.1–3 mM) | enhancement of Po [1, 6] | reduction of interburst interval (IBI) [1, 6] | Emax [1] | maximal response compared with ivacaftor ([2]; FRT cells co-expressing low temperature-rescued F508del‐CFTR and YFP) | EC50 ([2]; FRT cells co-expressing low temperature-rescued F508del‐V470‐CFTR and YFP, forskolin 20 μM, scaled to DMSO 0% and genistein 50 μM 100%, read-out: EC50 for potentiation of CFTR-mediated anion transport) | enhancement of Po [1, 7] | reduction of interburst interval (IBI) [1, 7]
1 | Cc1ncccc1CNC(=O)c1ccc2c(c1)CC[C@H]1C[C@](O)(CCC(F)(F)F)CC[C@]21Cc1ccccc1 (racemic) [CP‐628006, rac‐(4bR,7R,8aS)‐4b‐benzyl‐7‐hydroxy‐N‐((2‐methylpyridin‐3‐yl)methyl)‐7‐(3,3,3‐trifluoropropyl)‐4b,5,6,7,8,8a,9,10‐octahydrophenanthrene‐2‐carboxamide] | 0.5 µM | 0.62 | 0.4 µM | 0.33 | 13 ± 5 fold | 15 fold | 144% | approximately half that of ivacaftor | 400 nM | – | –
2 | CC(C)(C)c1cc(C(C)(C)C)c(NC(=O)c2c[nH]c3ccccc3c2=O)cc1O [ivacaftor, reference compound] | 0.008 µM | 0.51 | 0.01 µM | – | – | – | 103% | – | – | 9 ± 5 fold | 15 fold
